# In publication PMC4893804 (Journal of medicinal chemistry, 2015):
# Where two headings read alike, the source gives them in different places.
# What was measured:
# [1] = molecular target: HIV-1 RT (Human immunodeficiency virus type 1 group M subtype B, UniProt P03366); assay: HIV-1 reverse transcriptase assay with homopolymeric template/primers; type: biochemical
# [2] = molecular target: HCMV DNA polymerase (UL54) (Human cytomegalovirus, UniProt P08546); assay: Enzyme assay with HCMV DNA polymerase; type: biochemical; conditions: for IC50: activated calf thymus DNA, [3H]dTTP; for superior activity against HCMV DNA polymerase compared to thymine-α-CNP: ratio vs thymine-α-CNP
# [3] = molecular target: HSV-1 DNA polymerase (Human herpesvirus 1, UniProt P04293); assay: Enzyme assay with HSV-1 DNA polymerase; type: biochemical
# [4] = molecular target: VZV DNA polymerase (Varicella-zoster virus, UniProt P09252); assay: Enzyme assay with VZV DNA polymerase; type: biochemical
# [5] = molecular target: T1, Human DNA Pol α (Homo sapiens, UniProt P09884); assay: Enzyme assay with human DNA polymerase α; type: biochemical
# T1 sequence (P09884 1-1462): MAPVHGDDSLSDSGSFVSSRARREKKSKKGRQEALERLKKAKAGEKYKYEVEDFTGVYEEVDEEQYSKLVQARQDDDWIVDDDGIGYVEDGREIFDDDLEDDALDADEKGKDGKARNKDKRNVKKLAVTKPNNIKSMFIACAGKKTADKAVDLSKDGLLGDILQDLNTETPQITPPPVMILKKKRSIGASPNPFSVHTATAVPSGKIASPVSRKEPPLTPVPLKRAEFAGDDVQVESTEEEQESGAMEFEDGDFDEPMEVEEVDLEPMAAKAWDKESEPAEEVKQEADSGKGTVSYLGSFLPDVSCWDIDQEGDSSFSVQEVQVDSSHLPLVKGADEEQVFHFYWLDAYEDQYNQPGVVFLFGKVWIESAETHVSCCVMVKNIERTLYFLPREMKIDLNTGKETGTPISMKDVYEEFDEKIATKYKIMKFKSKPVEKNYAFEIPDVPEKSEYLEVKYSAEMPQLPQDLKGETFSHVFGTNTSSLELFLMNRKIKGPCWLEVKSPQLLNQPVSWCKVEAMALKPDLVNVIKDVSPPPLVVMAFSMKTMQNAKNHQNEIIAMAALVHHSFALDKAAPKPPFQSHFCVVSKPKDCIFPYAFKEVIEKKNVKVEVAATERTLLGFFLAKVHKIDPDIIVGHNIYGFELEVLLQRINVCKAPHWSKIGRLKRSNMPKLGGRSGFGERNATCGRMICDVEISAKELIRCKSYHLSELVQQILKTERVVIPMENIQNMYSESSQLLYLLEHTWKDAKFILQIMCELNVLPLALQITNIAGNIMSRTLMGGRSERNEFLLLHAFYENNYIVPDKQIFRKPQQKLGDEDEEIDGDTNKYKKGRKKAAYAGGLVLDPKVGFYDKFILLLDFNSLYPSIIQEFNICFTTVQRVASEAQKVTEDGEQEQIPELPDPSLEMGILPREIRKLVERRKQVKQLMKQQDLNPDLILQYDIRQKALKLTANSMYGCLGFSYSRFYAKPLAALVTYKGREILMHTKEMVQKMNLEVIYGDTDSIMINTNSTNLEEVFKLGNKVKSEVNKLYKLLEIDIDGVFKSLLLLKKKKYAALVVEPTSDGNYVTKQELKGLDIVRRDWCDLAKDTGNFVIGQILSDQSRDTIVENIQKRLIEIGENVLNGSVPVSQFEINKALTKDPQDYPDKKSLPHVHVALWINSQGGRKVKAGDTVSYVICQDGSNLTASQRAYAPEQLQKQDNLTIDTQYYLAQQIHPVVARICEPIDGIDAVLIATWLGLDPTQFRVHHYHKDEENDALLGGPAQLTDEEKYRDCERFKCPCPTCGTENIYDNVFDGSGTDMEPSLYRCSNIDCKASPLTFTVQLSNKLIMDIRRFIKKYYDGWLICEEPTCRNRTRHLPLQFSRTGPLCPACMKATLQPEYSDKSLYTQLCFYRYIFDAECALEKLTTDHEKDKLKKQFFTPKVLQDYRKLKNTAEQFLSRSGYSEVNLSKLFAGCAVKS
# [6] = molecular target: Human DNA Pol β (Homo sapiens, UniProt P06746); assay: Enzyme assay with human DNA polymerase β; type: biochemical
# [7] = molecular target: M184I HIV-1 RT (Human immunodeficiency virus type 1 group M subtype B, UniProt P03366, M783I); assay: Mutant HIV-1 RT assay
# [8] = molecular target: Y115F HIV-1 RT (Human immunodeficiency virus type 1 group M subtype B, UniProt P03366, Y714F); assay: Mutant HIV-1 RT assay
# [9] = read-out: IC50 HIV-1 RT, poly rA.dT template/primer, [3H]dTTP
# [10] = read-out: IC50 HSV-1 DNA Pol, activated calf thymus DNA, [3H]dTTP
# [11] = read-out: IC50 VZV DNA Pol, poly dA.oligo dT, [3H]dTTP
# [12] = read-out: IC50 Human DNA Pol α, activated calf thymus DNA, [3H]dTTP
# [13] = read-out: IC50 Human DNA Pol β, activated calf thymus DNA, [3H]dTTP
# [14] = IC50 HIV-1 RT Poly rA.dT ([3H]dTTP), Table 7, Poly rA.dT, [3H]dTTP
# [15] = IC50 HIV-1 RT Poly rC.dG ([3H]dGTP), Poly rC.dG, [3H]dGTP
# [16] = IC50 HIV-1 RT Poly rI.dC ([3H]dCTP), Poly rI.dC, [3H]dCTP
# [17] = IC50 HIV-1 RT Poly rU.dA ([3H]dATP), Poly rU.dA, [3H]dATP
# [18] = IC50 HIV-1 RT, poly rA.dT template/primer, [3H]dTTP
# [19] = IC50 Wild-type HIV-1 RT, Table 8, wild-type RT
# Sequence of VZV DNA polymerase (P09252 whole entry): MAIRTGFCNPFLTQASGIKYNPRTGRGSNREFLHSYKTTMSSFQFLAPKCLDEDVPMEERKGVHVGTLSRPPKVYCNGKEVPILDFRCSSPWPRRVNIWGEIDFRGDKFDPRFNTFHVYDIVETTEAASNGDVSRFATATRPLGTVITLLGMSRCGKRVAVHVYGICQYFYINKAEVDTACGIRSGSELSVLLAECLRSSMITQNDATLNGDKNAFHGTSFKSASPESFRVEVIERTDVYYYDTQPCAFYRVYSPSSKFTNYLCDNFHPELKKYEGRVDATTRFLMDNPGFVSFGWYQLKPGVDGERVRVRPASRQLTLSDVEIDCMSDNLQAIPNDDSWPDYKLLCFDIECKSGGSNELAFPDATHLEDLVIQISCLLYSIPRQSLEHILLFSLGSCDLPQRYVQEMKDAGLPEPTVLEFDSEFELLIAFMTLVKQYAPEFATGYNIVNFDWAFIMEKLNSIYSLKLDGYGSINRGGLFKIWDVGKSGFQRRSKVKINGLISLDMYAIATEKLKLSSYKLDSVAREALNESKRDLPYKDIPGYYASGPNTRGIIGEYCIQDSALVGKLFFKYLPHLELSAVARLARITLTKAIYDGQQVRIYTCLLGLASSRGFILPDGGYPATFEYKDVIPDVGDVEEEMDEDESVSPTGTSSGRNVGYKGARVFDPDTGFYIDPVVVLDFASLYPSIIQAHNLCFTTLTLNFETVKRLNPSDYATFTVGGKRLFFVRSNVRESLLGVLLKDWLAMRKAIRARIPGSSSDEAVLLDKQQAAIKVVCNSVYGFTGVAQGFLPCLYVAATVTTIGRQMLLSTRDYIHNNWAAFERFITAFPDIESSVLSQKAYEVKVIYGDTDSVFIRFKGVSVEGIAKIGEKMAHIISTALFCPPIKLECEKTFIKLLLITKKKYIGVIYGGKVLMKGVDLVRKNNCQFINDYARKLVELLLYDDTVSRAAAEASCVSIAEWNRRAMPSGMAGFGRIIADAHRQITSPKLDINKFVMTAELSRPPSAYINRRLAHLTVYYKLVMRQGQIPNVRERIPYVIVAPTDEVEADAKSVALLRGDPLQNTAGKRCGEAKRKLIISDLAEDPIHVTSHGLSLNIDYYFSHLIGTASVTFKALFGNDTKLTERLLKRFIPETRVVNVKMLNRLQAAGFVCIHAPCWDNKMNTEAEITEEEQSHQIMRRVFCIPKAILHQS
# Sequence of HCMV DNA polymerase (UL54) (P08546 whole entry): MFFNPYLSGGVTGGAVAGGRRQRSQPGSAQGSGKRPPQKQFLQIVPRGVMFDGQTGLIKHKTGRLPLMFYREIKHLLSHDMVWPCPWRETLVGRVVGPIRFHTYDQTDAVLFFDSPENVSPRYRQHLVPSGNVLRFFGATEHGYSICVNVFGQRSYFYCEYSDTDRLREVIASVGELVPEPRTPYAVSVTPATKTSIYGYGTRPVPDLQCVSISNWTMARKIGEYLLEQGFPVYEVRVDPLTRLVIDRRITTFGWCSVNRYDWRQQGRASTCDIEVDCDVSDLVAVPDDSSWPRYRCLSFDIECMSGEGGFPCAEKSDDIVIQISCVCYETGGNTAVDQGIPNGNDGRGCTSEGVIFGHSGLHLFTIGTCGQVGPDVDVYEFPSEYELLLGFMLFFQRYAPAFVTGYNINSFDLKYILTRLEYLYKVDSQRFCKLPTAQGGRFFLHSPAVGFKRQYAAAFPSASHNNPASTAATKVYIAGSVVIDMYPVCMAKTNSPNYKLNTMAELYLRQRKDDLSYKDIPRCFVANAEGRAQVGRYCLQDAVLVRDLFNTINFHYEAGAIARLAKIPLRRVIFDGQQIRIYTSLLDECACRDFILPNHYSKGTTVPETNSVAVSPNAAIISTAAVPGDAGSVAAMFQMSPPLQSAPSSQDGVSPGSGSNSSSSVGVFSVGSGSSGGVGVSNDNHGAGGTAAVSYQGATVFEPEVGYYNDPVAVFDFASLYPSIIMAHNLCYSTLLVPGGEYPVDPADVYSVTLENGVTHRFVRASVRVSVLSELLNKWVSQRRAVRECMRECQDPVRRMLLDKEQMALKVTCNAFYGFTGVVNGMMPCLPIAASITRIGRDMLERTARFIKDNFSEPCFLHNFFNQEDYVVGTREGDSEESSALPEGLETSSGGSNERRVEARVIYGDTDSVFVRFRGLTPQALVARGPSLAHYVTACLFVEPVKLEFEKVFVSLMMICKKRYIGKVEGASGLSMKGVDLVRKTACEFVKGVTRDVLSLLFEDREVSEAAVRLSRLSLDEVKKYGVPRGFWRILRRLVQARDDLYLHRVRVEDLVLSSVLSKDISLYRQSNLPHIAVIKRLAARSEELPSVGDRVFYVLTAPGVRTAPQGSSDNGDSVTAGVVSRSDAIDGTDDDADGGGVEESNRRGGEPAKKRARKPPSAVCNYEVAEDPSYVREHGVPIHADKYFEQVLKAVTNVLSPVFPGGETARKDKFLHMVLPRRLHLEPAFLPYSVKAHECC
# Sequence of HSV-1 DNA polymerase (P04293 whole entry): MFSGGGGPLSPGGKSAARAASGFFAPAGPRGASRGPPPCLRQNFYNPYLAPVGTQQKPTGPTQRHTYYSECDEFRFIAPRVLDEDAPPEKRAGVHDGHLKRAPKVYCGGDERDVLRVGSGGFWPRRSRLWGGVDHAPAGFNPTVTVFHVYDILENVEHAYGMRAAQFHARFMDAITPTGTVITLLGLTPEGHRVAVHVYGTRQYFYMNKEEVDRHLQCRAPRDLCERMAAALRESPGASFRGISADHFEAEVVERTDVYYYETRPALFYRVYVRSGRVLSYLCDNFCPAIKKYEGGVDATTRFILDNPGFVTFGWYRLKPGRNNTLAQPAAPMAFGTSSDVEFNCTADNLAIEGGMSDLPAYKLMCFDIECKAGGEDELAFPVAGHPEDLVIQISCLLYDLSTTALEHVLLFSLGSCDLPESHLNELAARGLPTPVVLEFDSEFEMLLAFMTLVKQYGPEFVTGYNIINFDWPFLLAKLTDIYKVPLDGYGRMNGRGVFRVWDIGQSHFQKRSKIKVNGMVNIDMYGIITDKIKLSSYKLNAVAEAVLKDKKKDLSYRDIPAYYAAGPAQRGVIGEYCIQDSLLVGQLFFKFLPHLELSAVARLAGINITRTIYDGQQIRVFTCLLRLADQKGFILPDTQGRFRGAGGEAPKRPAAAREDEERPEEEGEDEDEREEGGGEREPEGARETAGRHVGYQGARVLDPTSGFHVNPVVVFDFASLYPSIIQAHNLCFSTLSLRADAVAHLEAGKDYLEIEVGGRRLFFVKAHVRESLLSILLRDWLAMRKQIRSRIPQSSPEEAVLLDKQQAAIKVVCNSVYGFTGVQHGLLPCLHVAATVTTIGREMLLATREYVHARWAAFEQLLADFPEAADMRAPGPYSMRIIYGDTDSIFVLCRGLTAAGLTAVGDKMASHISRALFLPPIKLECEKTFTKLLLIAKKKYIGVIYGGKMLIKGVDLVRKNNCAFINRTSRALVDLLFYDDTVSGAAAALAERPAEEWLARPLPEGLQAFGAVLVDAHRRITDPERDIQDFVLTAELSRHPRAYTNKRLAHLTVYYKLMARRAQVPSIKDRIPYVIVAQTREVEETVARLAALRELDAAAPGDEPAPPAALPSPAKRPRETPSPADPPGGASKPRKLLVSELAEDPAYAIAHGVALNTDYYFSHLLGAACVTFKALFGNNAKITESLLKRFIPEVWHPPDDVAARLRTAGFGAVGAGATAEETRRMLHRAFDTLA
Structure (SMILES),"IC50 [1, 9] [µM]",IC50 ([2]; read-out: IC50 HCMV DNA Pol) [µM],"IC50 [3, 10] [µM]","IC50 [4, 11] [µM]","IC50 [5, 12] [µM]","IC50 [6, 13] [µM]","IC50 [1, 18] [µM]",IC50 ([2]; IC50 HCMV DNA Pol) [µM],IC50 [3] [µM],IC50 [4] [µM],IC50 [5] [µM],IC50 [6] [µM],further results
"O=C(O)C(OCCCCn1cc(F)c(=O)[nH]c1=O)P(=O)(O)O (stereo not drawn) [Compound 6j, 2-(4-(5-Fluoro-2,4-dioxo-3,4-dihydropyrimidin-1(2H)-yl)butoxy)-2-phosphonoacetic acid]",263 ± 69,9.4 ± 4.1,6.7 ± 4.6,4.1 ± 0.9,72 ± 52,306 ± 3,–,–,–,–,–,–,–
Cc1cn(C[C@H]2C[C@H]2COC(C(=O)O)P(=O)(O)O)c(=O)[nH]c1=O (relative stereo) [Compound 6b],440 ± 85,4.6 ± 0.2,36 ± 12,12 ± 3,183 ± 8,390 ± 127,–,–,–,–,–,–,superior activity against HCMV DNA polymerase compared to thymine-α-CNP [2]: 8- to 13 fold
"Nc1ncnc2c1ncn2C/C=C\COC(C(=O)O)P(=O)(O)O (stereo not drawn) [Compound 6k, 2-Cis-(4-(6-amino-9H-purin-9-yl)but-2-enyloxy)-2-phosphonoacetic acid]",–,–,–,–,–,–,404 ± 30,5.5 ± 2.1,2.7 ± 2,3.3 ± 0.4,≥ 500,454 ± 28,"IC50 [1, 14]: 404 ± 30 µM; IC50 [1, 15]: > 500 µM; IC50 [1, 16]: > 500 µM; IC50 [1, 17]: 40 ± 8 µM; IC50 [1, 19]: 531 ± 154 µM; IC50 [7]: ≥ 2500 µM; IC50 [8]: 630 ± 37 µM"
Cc1cn(C[C@H]2CCCC[C@H]2COC(C(=O)O)P(=O)(O)O)c(=O)[nH]c1=O (relative stereo) [Compound 6e],≥ 500,4,8.6 ± 6.6,16 ± 1,69 ± 21,> 500,–,–,–,–,–,–,superior activity against HCMV DNA polymerase compared to thymine-α-CNP [2]: 8- to 13 fold
"O=C(O)C(OC/C=C\Cn1cc(F)c(=O)[nH]c1=O)P(=O)(O)O (stereo not drawn) [Compound 6i, 2-Cis-(4-(5-fluoro-2,4-dioxo-3,4-dihydropyrimidin-1(2H)-yl)but-2-enyloxy)-2-phosphonoacetic acid]",–,–,–,–,–,–,> 500,30 ± 16,24 ± 1,27 ± 2,325 ± 4,> 500,–
"Cc1cn([C@H]2CC[C@@H](COP(=O)(O)OP(=O)(O)OP(=O)(O)O)O2)c(=O)[nH]c1=O [ddTTP, reference compound]",–,–,–,–,–,–,–,–,–,–,–,–,"IC50 ([1]; read-out: IC50 HIV-1 RT Poly rA.dT ([3H]dTTP), Table 7, Poly rA.dT, [3H]dTTP): 0.05 ± 0.01 µM; IC50 ([1]; read-out: IC50 HIV-1 RT Poly rC.dG ([3H]dGTP), Poly rC.dG, [3H]dGTP): > 20 µM; IC50 ([1]; read-out: IC50 HIV-1 RT Poly rI.dC ([3H]dCTP), Poly rI.dC, [3H]dCTP): > 20 µM; IC50 ([1]; read-out: IC50 HIV-1 RT Poly rU.dA ([3H]dATP), Poly rU.dA, [3H]dATP): > 20 µM"
"Nc1ccn([C@H]2CC[C@@H](COP(=O)(O)OP(=O)(O)OP(=O)(O)O)O2)c(=O)n1 [ddCTP, reference compound]",–,–,–,–,–,–,–,–,–,–,–,–,IC50 ([1]; IC50 HIV-1 RT Poly rA.dT ([3H]dTTP)): > 20 µM; IC50 ([1]; IC50 HIV-1 RT Poly rC.dG ([3H]dGTP)): > 20 µM; IC50 ([1]; IC50 HIV-1 RT Poly rI.dC ([3H]dCTP)): 3.1 ± 2.2 µM; IC50 ([1]; IC50 HIV-1 RT Poly rU.dA ([3H]dATP)): > 20 µM
"Nc1ccn(C/C=C\COC(C(=O)O)P(=O)(O)O)c(=O)n1 (stereo not drawn) [Compound 6m, 2-Cis-(4-(4-amino-2-oxopyrimidin-1(2H)-yl)but-2-enyloxy)-2-phosphonoacetic acid]",–,–,–,–,–,–,270 ± 33,16 ± 8,12 ± 6,2.9 ± 0.9,414 ± 22,> 500,"IC50 [1, 14]: 270 ± 33 µM; IC50 [1, 15]: > 500 µM; IC50 [1, 16]: 273 ± 54 µM; IC50 [1, 17]: > 500 µM; IC50 [1, 19]: 318 ± 73 µM; IC50 [7]: > 1250 µM; IC50 [8]: 408 ± 16 µM"
